Laboratory results: patent US10688099B2, “Methods for modulating the amount of RNA transcripts” (PTC Therapeutics, Inc., priority 2013, dated 2020)

Tested on: RNA isoforms in PNN 1-46 SMA type I patient-derived fibroblasts
Experiment: RNA Abundance Modulation (RNA isoform abundance, iFPM, HiSeq RNA sequencing)
Assay type: cell-based, human
Conditions: 3 μM
Description: Cells from a cell line of interest are cultured in conditions sufficient to yield the number of cells capable of generating enough RNA for subsequent sequencing steps. Cells from the tested cell line are contacted with a compound described herein.
To culture said cells, they are seeded, at appropriate concentrations in a volume of media in a cell culture container and incubated for 4, 5, 6, 7, 8, 9, 10, or more hours. A concentrated solution of compound in a vehicle (e.g., DMSO) is then added in sufficient volume to result in the intended final concentration of the compound, for example 100 nM, 500 nM, 1 μM, 5 μM, 10 μM, 15 μM, 20 μM, or more. The cells may also be treated with vehicle alone, as a control. A number of replicates of each concentration or control may be made (e.g., 2 replicates). The cells are then incubated at a constant temperature appropriate for cell culture of the particular cell line (e.g., 37° C.) for 6, 12, 18, 24, 48, or more hours. After incubation, the growth medium is removed and the cells are washed with the appropriate buffer (e.g., PBS). Cells are then removed from adherence to the cell culture container by treatment with a solution containing trypsin, and the trypsin subsequently quenched with the appropriate volume of buffer (e.g., DMEM-FBS). The cells are then pelleted with gentle centrifugation (e.g., ≤90×g centrifugal force) and resuspended in a buffer to lyse the cells for extraction of RNA. The cell lysates may then be frozen (e.g., at −80° C.) or, alternately, may immediately be used in a procedure to purify the RNA (e.g. by use of the RNEASY PLUS® minikit). The RNA from cell lysates is eluted in the appropriate volume of buffer (e.g., RNEASE-FREE H2O®). The resulting purified RNA may then be sequenced (e.g., using RNASeq) or analyzed using a human exon array (e.g., by GENECHIP® human exon array) to determine changes in the RNA levels in those cells treated with compound compared to those cells treated only with DMSO. The purified RNA may also be quantified by other methods known in the art.
Using the RNA data obtained from sequencing, exon array, or other methods, a statistical analysis can reveal changes in the RNA levels of compound-treated compared with control. For example, t-test p-values may be calculated for the data obtained through sequencing and exon array methods in order to compare compound-treated cells to those treated with the DMSO control. […] Analysis of the sequencing and exon array data may then also yield predictions about the cause of the aberrant amount of an RNA transcript in the cells (e.g., perturbation of RNA splicing, RNA transcription, or RNA stability). These predictions may be further confirmed by methods known in the art. For example, RT-PCR and RT-qPCR may be used to confirm the change in amount of RNA transcripts for one or more particular transcripts of interest.
Following the methods described above in Example 1, PNN 1-46 SMA type I patient-derived fibroblasts were treated with 300 nM or 3 μM Compounds 774 and 808 in 0.5% DMSO.
700,000 cells were seeded in 10 mL of medium (DMEM plus 10% FBS) in a T-75 flask. Cells were allowed to attach for at least 4 hrs, after which 50 μL of a 200× compound solution (100% DMSO) was added to each well, and the plate was incubated at 37° C. for 24 hrs.
At the end of the incubation period, the supernatant was removed and the cells where washed with PBS. TrypLE (Invitrogen) express solution was added (e.g. 1.5 mL per one T75 flask). The flasks were incubated for 3 to 5 min at 37° C. The trypsin was then quenched, e.g., by adding 10 mL DMEM-FBS.
Next, the cells were pelleted using gentle centrifugation without exceeding 90×g centrifugal force. The supernatant was removed and the cell pellet was re-suspended in 600 μL RLT buffer (the RLT buffer was supplemented with beta-mercaptoethanol according to the RNeasy protocol manual) by pipetting up and down until the pellet was completely dissolved […]

`CCc1nc(C)cn2nc(-c3cc(=O)n4cc(C5CCN(C)CC5)cc(C)c4n3)cc12` [Compound 774] was tested, and the “L2FC (x + 1)” value (TIMP2 AK294290) was −6.520, the “L2abs (Cpd-DMSO)” value (TIMP2 AK294290) was 6.50 and the “abs (Cpd-DMSO)” value (TIMP2 AK294290) was 91 iFPM. For the same compound, the “amp FC (x + 1)” value (TIMP2 AK294290) was 91.79, the “ave Cpd” value (TIMP2 AK294290) was 0 iFPM and the “FC (x + 1)” value (TIMP2 BC039613) was 0.9284. For the same compound, the “L2FC (x + 1)” value (TIMP2 BC039613) was −0.107, the “L2abs (Cpd-DMSO)” value (TIMP2 BC039613) was 11.17 and the “abs (Cpd-DMSO)” value (TIMP2 BC039613) was 2306 iFPM. For the same compound, the “amp FC (x + 1)” value (TIMP2 BC039613) was 1.08, the “ave Cpd” value (TIMP2 BC039613) was 29887 iFPM and the “FC (x + 1)” value (TIMP2 NM_003255) was 0.9585. The “L2FC (x + 1)” value (TIMP2 NM_003255) was −0.061, the “L2abs (Cpd-DMSO)” value (TIMP2 NM_003255) was 9.77 and the “abs (Cpd-DMSO)” value (TIMP2 NM_003255) was 876 iFPM. The “amp FC (x + 1)” value (TIMP2 NM_003255) was 1.04, the “ave Cpd” value (TIMP2 NM_003255) was 20235 iFPM and the “FC (x + 1)” value (TLK1 AK091975) was 0.7110. The “L2FC (x + 1)” value (TLK1 AK091975) was −0.492, the “L2abs (Cpd-DMSO)” value (TLK1 AK091975) was 6.56 and the “abs (Cpd-DMSO)” value (TLK1 AK091975) was 95 iFPM. For the same compound, the “amp FC (x + 1)” value (TLK1 AK091975) was 1.41, the “ave Cpd” value (TLK1 AK091975) was 232 iFPM and the “FC (x + 1)” value (TLK1 BX537631) was 1.2332. The “L2FC (x + 1)” value (TLK1 BX537631) was 0.302, the “L2abs (Cpd-DMSO)” value (TLK1 BX537631) was 0.14 and the “abs (Cpd-DMSO)” value (TLK1 BX537631) was 1 iFPM. The “amp FC (x + 1)” value (TLK1 BX537631) was 1.23, the “ave Cpd” value (TLK1 BX537631) was 5 iFPM and the “FC (x + 1)” value (TLK1 E09283) was 1.1041. For the same compound, the “L2FC (x + 1)” value (TLK1 E09283) was 0.143, the “L2abs (Cpd-DMSO)” value (TLK1 E09283) was 1.54 and the “abs (Cpd-DMSO)” value (TLK1 E09283) was 3 iFPM. For the same compound, the “amp FC (x + 1)” value (TLK1 E09283) was 1.10, the “ave Cpd” value (TLK1 E09283) was 30 iFPM and the “FC (x + 1)” value (TLK1 NM_012290) was 1.4535. For the same compound, the “L2FC (x + 1)” value (TLK1 NM_012290) was 0.540, the “L2abs (Cpd-DMSO)” value (TLK1 NM_012290) was 8.52 and the “abs (Cpd-DMSO)” value (TLK1 NM_012290) was 367 iFPM. For the same compound, the “amp FC (x + 1)” value (TLK1 NM_012290) was 1.45, the “ave Cpd” value (TLK1 NM_012290) was 1174 iFPM and the “FC (x + 1)” value (TLK1 NM_001136554) was 0.3744. For the same compound, the “L2FC (x + 1)” value (TLK1 NM_001136554) was −1.417, the “L2abs (Cpd-DMSO)” value (TLK1 NM_001136554) was 8.77 and the “abs (Cpd-DMSO)” value (TLK1 NM_001136554) was 437 iFPM. For the same compound, the “amp FC (x + 1)” value (TLK1 NM_001136554) was 2.67, the “ave Cpd” value (TLK1 NM_001136554) was 260 iFPM and the “FC (x + 1)” value (TLK1 NM_001136555) was 4.0350. For the same compound, the “L2FC (x + 1)” value (TLK1 NM_001136555) was 2.013, the “L2abs (Cpd-DMSO)” value (TLK1 NM_001136555) was 6.40 and the “abs (Cpd-DMSO)” value (TLK1 NM_001136555) was 84 iFPM. The “amp FC (x + 1)” value (TLK1 NM_001136555) was 4.04, the “ave Cpd” value (TLK1 NM_001136555) was 111 iFPM and the “FC (x + 1)” value (TMEM154 NM_152680) was 2.2609. The “L2FC (x + 1)” value (TMEM154 NM_152680) was 1.177, the “L2abs (Cpd-DMSO)” value (TMEM154 NM_152680) was 8.26 and the “abs (Cpd-DMSO)” value (TMEM154 NM_152680) was 306 iFPM. The “amp FC (x + 1)” value (TMEM154 NM_152680) was 2.26, the “ave Cpd” value (TMEM154 NM_152680) was 548 iFPM and the “FC (x + 1)” value (TNS3 NM_022748) was 0.1472. The “L2FC (x + 1)” value (TNS3 NM_022748) was −2.764, the “L2abs (Cpd-DMSO)” value (TNS3 NM_022748) was 9.92 and the “abs (Cpd-DMSO)” value (TNS3 NM_022748) was 971 iFPM. The “amp FC (x + 1)” value (TNS3 NM_022748) was 6.79, the “ave Cpd” value (TNS3 NM_022748) was 167 iFPM and the “FC (x + 1)” value (TOMM5 CCDS47968) was 0.9090. The “L2FC (x + 1)” value (TOMM5 CCDS47968) was −0.138, the “L2abs (Cpd-DMSO)” value (TOMM5 CCDS47968) was −2.28 and the “abs (Cpd-DMSO)” value (TOMM5 CCDS47968) was 0 iFPM. For the same compound, the “amp FC (x + 1)” value (TOMM5 CCDS47968) was 1.10, the “ave Cpd” value (TOMM5 CCDS47968) was 1 iFPM and the “FC (x + 1)” value (TOMM5 CR627326) was 0.4244. The “L2FC (x + 1)” value (TOMM5 CR627326) was −1.236, the “L2abs (Cpd-DMSO)” value (TOMM5 CR627326) was 2.64 and the “abs (Cpd-DMSO)” value (TOMM5 CR627326) was 6 iFPM.
